Laboratory results reported in paper PMC6155227 (Molecules : A Journal of Synthetic Chemistry and Natural …, 2017).

How the values were obtained:
avian influenza virus = conditions: mouse, in vivo; cited from earlier work
[1] = test system: H5N1(A/Vietnam/1203/2004) strain; test: microbe, parasite or virus in culture; format: cell-based, influenza virus A/Vietnam/1203/2004 (H5N1); conditions: Influenza A virus, H5N1, MDCK
MDCK cells = conditions: dog
[2] = test system: porcine reproductive and respiratory syndrome virus (PRRSV); conditions: cited from earlier work

SMILES: CCCC(=O)c1c(O)c(CC2=C(O)C(C)(C)C(O)=C(C(C)=O)C2=O)c(O)c(Cc2c(O)c(CC3=C(O)C(C)(C)C(O)=C(C(C)=O)C3=O)c(O)c(C(=O)CCC)c2O)c1O [Dryocrassin ABBA, dryocrassin ABBA]
- protection of infected mice (avian influenza virus): protect mice infected with avian influenza virus
- EC50 ([1]; 72 h, read-out: EC50 anti-influenza virus activity): 16.6 µM
- 50% toxicity concentration (TC50) (MDCK cells): greater than 400 μM

SMILES: CCCC(=O)c1c(O)c(CC2=C(O)C(C)(C)C(O)=C(C(C)=O)C2=O)c(O)c(CC2=C(O)C(C)(C)C(O)=C(C(C)=O)C2=O)c1O [Filixic acid ABA, filixic acid ABA]
- inhibition at 100 µM ([1]; read-out: inhibition rate): < 50%
- maximal non-cytotoxic concentration (MDCK cells): 100 µM

SMILES: CCCC(=O)c1c(O)c(C)c(O)c(CC2=C(O)C(C)(C)C(O)=C(C(C)=O)C2=O)c1O [Flavaspidic acid AB, flavaspidic acid AB]
- virus replication [2]: inhibit replication
